Assay results published in patent US20250084044A1, “PROTOPORPHYRINOGEN OXIDASE INHIBITORS” (Enko Chem, Inc., priority 2022, published 2025).

How the values were obtained:
Type in all cases: in vivo
[1] = test system: Echinochloa crus-galli (ECHCG); assay: Post-emergence herbicidal activity, ECHCG; conditions: 7 days after treatment; for pest or weed control at 100 ppm: Echinochloa crus-galli, 168 h, Table 3a; for Post-emergence (100 ppm) ECHCG: Table 3b
Description: (§1) Selected compounds of the invention were screened at 100 PPM against Amaranthus retroflexus (AMARE), Setaria italica (SETIT), and Echinochloa crus-galli (ECHCG). […]
(§2) Compounds were formulated in 25% Acetone, 1% Crop oil concentrate (COC-Agridex), 0.1% Tween-20, and 2.5% Ammonium sulphate (AMS). Three replicate pots were treated with each compound. Treatment consisting of the above formulation excluding active compound was applied as a treatment control (TC). Plants were treated with the test compound solution in a laboratory spray chamber fitted with 8003 flat fan nozzles calibrated to deliver 187-200 L ha^−1 at 269 kPa. Plants were placed back in the growth chamber and evaluated for % visual injury compared to TC 7 days after treatment (DAT). The data presented in Table 3 indicate a percentage control, where 100% control indicates complete inhibition of growth. […]

[2] = test system: Amaranthus retroflexus (AMARE); assay: Post-emergence herbicidal activity, AMARE; conditions: 7 days after treatment; for pest or weed control at 100 ppm: Amaranthus retroflexus, 168 h, Table 3a; for Post-emergence (100 ppm) AMARE: Table 3b
Description: as §1, §2

[3] = test system: Setaria italica (SETIT); assay: Post-emergence herbicidal activity, SETIT; conditions: 7 days after treatment; for pest or weed control at 100 ppm: Setaria italica, 168 h, Table 3a; for Post-emergence (100 ppm) SETIT: Table 3b
Description: Selected compounds of the invention were screened at 100 PPM against Amaranthus retroflexus (AMARE), Setaria italica (SETIT), and Echinochloa crus-galli (ECHCG).
(§3) Accordingly, PPO susceptible weed seeds were sown in 5″×5″ pots by quadrant containing Miracle-Gro potting mix (Scotts Miracle-Gro Company, Marysville, OH. USA) and grown in a Conviron growth chamber with appropriate growth conditions (temperature of 26/22° C. with photoperiod 16/8 h light day/night and light intensity of 300 μmol m^−2 s^−1 supplemented by LED lamps). Relative humidity in the growth chamber was maintained at around 65%. Plants were grown until 2-4 leaf stage and thinned to 5-8 plants per quadrant per species.
(§4) Compounds were formulated in 25% Acetone, 1% Crop oil concentrate (COC-Agridex), 0.1% Tween-20, and 2.5% Ammonium sulphate (AMS). Three replicate pots were treated with each compound. Treatment consisting of the above formulation excluding active compound was applied as a treatment control (TC). Plants were treated with the test compound solution in a laboratory spray chamber fitted with 8003 flat fan nozzles calibrated to deliver 187-200 L ha^−1 at 269 kPa. Plants were placed back in the growth chamber and evaluated for % visual injury compared to TC 7 days after treatment (DAT). The data presented in Table 3 indicate a percentage control, where 100% control indicates complete inhibition of growth.
(§5) Selected compounds of the invention were screened at 100 PPM against Amaranthus retroflexus (AMARE), Echinochloa crus-galli (ECHCG), Kochia scoparia (KCHSC), and Setaria italica (SETIT).
as §3, with “5″ 5″” for “5″×5″”, “OH,” for “OH.”, “[…]” for “m^−2”

[4] = test system: Setaria italica (SETIT); assay: Pre-emergence herbicidal activity, SETIT; conditions: 7 days after treatment
From the text: (§6) Selected compounds of the invention were screened at 200 PPM against Amaranthus retroflexus (AMARE). Echinochloa crus-galli (ECHCG). Kochia scoparia (KCHSC), and Selaria italica (SETIT).
(§7) Accordingly, PPO susceptible weed seeds were planted in 5″×5″ pots by quadrant containing custom field soil mix (Sandy loam with 4.7% OM, pH 7.0) and covered with a fine layer of the same soil. Compounds were formulated in 25% Acetone, 1% Crop oil concentrate (COC-Agridex), 0.1% Tween-20, and 2.5% Ammonium sulphate (AMS). Three replicate pots were treated with each compound. Treatment consisting of the above formulation excluding active compound was applied as a treatment control (TC). Pots were treated with the test compound solution in a laboratory spray chamber fitted with 8003 flat fan nozzles calibrated to deliver 187-200 L ha^−1 at 269 kPa. Compound was incorporated into the soil by simulating rainfall equivalent to 0.2 mm using the same track sprayer. Subsequently, pots were irrigated from the bottom until assessed for % growth and germination inhibition. Pots were placed back in the growth chamber and evaluated for % growth and germination inhibition compared to TC 7 days after treatment (DAT). Growth conditions are similar to the ones mentioned in POST emergence assay.
(§8) The data presented in Table 4 indicate a percentage control, where 100% control indicates complete inhibition of growth.

[5] = test system: Kochia scoparia (KCHSC); assay: Pre-emergence herbicidal activity, KCHSC; conditions: 7 days after treatment
From the text: as §6, §7, §8

[6] = test system: Echinochloa crus-galli (ECHCG); assay: Pre-emergence herbicidal activity, ECHCG; conditions: 7 days after treatment
From the text: as §6, §7, §8

[7] = test system: Kochia scoparia (KCHSC); assay: Post-emergence herbicidal activity, KCHSC; conditions: 7 days after treatment, Table 3b
Description: as §5
as §3, with “5″ 5″” for “5″×5″”, “OH,” for “OH.”, “[…]” for “m^−2”
as §4

[8] = test system: Amaranthus retroflexus (AMARE); assay: Pre-emergence herbicidal activity, AMARE; conditions: 7 days after treatment
From the text: as §6, §7, §8

Structure (SMILES)	pest or weed control at 100 ppm [1] [%]	pest or weed control at 100 ppm [2] [%]	pest or weed control at 100 ppm [3] [%]	Post-emergence (100 ppm) ECHCG [1] [%]	Pre-emergence (200 ppm) SETIT [4] [%]	Post-emergence (100 ppm) AMARE [2] [%]	Pre-emergence (200 ppm) KCHSC [5] [%]	Post-emergence (100 ppm) SETIT [3] [%]	Pre-emergence (200 ppm) ECHCG [6] [%]	Post-emergence (100 ppm) KCHSC [7] [%]	Pre-emergence (200 ppm) AMARE [8] [%]
CN(CC(=O)O)C(=O)CN1C(=O)C(F)(F)Oc2cc(F)c(-c3c(F)c(F)c(F)c(F)c3F)cc21 [Compound 85, N-methyl-N-(2-(2,2,7-trifluoro-3-oxo-6-(perfluorophenyl)-2,3-dihydro-4H-benzo[b][1,4]oxazin-4-yl)acetyl)glycine]	25	100	88								
COC(=O)CCN(C)C(=O)[C@H](C)N1C(=O)C(F)(F)Oc2cc(F)c(-c3c(F)c(F)c(F)c(F)c3F)cc21 [Compound 132, methyl (S)-3-(N-methyl-2-(2,2,7-trifluoro-3-oxo-6-(perfluorophenyl)-2,3-dihydro-4H-benzo[b][1,4]oxazin-4-yl)propanamido)propanoate]	70	100	100								
COC(=O)CCNC(=O)[C@H](C)N1C(=O)C(F)(F)Oc2cc(F)c(-c3c(F)c(F)c(F)c(F)c3F)cc21 [Compound 130, methyl (S)-3-(2-(2,2,7-trifluoro-3-oxo-6-(perfluorophenyl)-2,3-dihydro-4H-benzo[b][1,4]oxazin-4-yl)propanamido)propanoate]	92	100	100								
COC(=O)[C@@H](C)N1C(=O)C(F)(F)Oc2cc(F)c(-c3c(F)cc(F)c(F)c3F)cc21 [Compound 77, methyl (2R)-2-(2,2,7-trifluoro-3-oxo-6-(2,3,4,6-tetrafluorophenyl)-2,3-dihydro-4H-benzo[b][1,4]oxazin-4-yl)propanoate]	88	100	98	88	70	100	0	98	3	100	100
COC(=O)C1CN(C(=O)CN2C(=O)C(F)(F)Oc3cc(F)c(-c4c(F)c(F)c(F)c(F)c4F)cc32)C1 [Compound 86, methyl 1-(2-(2,2,7-trifluoro-3-oxo-6-(perfluorophenyl)-2,3-dihydro-4H-benzo[b][1,4]oxazin-4-yl)acetyl)azetidine-3-carboxylate]				69	7	100	27	100	5	11	68
COC(=O)[C@@H]1CCCN1C(=O)CN1C(=O)C(F)(F)Oc2cc(F)c(-c3c(F)c(F)c(F)c(F)c3F)cc21 [Compound 74, methyl (2-(2,2,7-trifluoro-3-oxo-6-(perfluorophenyl)-2,3-dihydro-4H-benzo[b][1,4]oxazin-4-yl)acetyl)-L-prolinate]	33	100	100								
COC(=O)CCNC(=O)[C@@H](C)N1C(=O)C(F)(F)Oc2cc(F)c(-c3c(F)c(F)c(F)c(F)c3F)cc21 [Compound 131, methyl (R)-3-(2-(2,2,7-trifluoro-3-oxo-6-(perfluorophenyl)-2,3-dihydro-4H-benzo[b][1,4]oxazin-4-yl)propanamido)propanoate]	15	100	83								
C[C@@H](C(=O)O)N1C(=O)C(F)(F)Oc2cc(F)c(-c3c(F)cc(F)c(F)c3F)cc21 [Compound 78, (2S)-2-(2,2,7-trifluoro-3-oxo-6-(2,3,4,6-tetrafluorophenyl)-2,3-dihydro-4H-benzo[b][1,4]oxazin-4-yl)propanoic acid]	70	100	100	70	18	100	60	100	5	93	100
COC(=O)CCN(C)C(=O)CN1C(=O)C(F)(F)Oc2cc(F)c(-c3c(F)c(F)c(F)c(F)c3F)cc21 [Compound 80, methyl 3-(N-methyl-2-(2,2,7-trifluoro-3-oxo-6-(perfluorophenyl)-2,3-dihydro-4H-benzo[b][1,4]oxazin-4-yl)acetamido)propanoate]	75	100	93	75	3	100	0	93	0	20	98
COC(=O)[C@@H](C)N1C(=O)C(F)(F)Oc2cc(F)c(-c3c(F)c(F)c(F)c(F)c3F)cc21 [Compound 8, methyl (R)-2-(2,2,7-trifluoro-3-oxo-6-(perfluorophenyl)-2,3-dihydro-4H-benzo[b][1,4]oxazin-4-yl)propanoate]	45	80	75								
COC(=O)[C@H](OC)N1C(=O)C(F)(F)Oc2cc(F)c(-c3c(F)c(F)c(F)c(F)c3F)cc21 [Compound 185, methyl (S)-2-methoxy-2-(2,2,7-trifluoro-3-oxo-6-(perfluorophenyl)-2,3-dihydro-4H-benzo[b][1,4]oxazin-4-yl)acetate]				50	100	100	83	100	43	100	100
C[C@@H](C(=O)O)N1C(=O)C(F)(F)Oc2cc(F)c(-c3c(F)c(F)c(F)c(F)c3F)cc21 [Compound 11, (S)-2-(2,2,7-trifluoro-3-oxo-6-(perfluorophenyl)-2,3-dihydro-4H-benzo[b][1,4]oxazin-4-yl)propanoic acid]	83	95	96								
